Values quoted from earlier work, collected in US20050058675A1, “Fullerene compositions for ameliorating dermatological conditions” (priority 2003, published 2005).

Test system: mice
Conditions: oral, about 0.5 mg/kg/day

C60(>C(COOH)2)3 [C3]
increase in mean survival relative to controls: ~20% | mean survival (controls 23.5+/−5.5 months, p=0.033): 28.7+/−3.3 months
